Results on 17 molecules are retold here after US12109179B2, “Pharmaceutical compositions and combinations comprising inhibitors of the androgen receptor and uses thereof” (ESSA Pharma Inc., priority 2019, dated 2024).

For experiment [1], the system named is Androgen-induced PSA-luciferase (LNCaP cells). Description: Androgen-induced PSA (6.1 kb)-luciferase reporter assay in LNCaP cells. The class given is cell-based. As to conditions: Homo sapiens, R1881 (1 nM) 24 h. The protocol:
To determine the IC50, treatments were normalized to the maximum activity with androgen-induction (in the absence of test compounds, vehicle only) (Table 1).
Luciferase Assay: Lysates were thawed on ice then collected into V-bottom 96-well tissue culture plates. Lysates were centrifuged at 4° C. for 5 minutes at 4000 rpm. To measure luminescence of LNCaP cell lysates the Firefly Luciferase Assay System (Promega) was employed, according to manufacturer's protocol.
Comparisons between treatment and control groups were compared using Two-Way ANOVA with post-hoc Dunnett's and Tukey's tests. Differences were considered statistically significant at P values less than 0.05. Densitometric quantification of relative AR levels was determined by Image.

Experiment [2] concerns AR transcriptional activity (PSA (6.1 kb)-luciferase, LNCaP cells). In words: PSA (6.1 kb)-luciferase assay with Pin1 inhibitors and AR NTD inhibitors (Examples 36-37). The class given is cell-based. As to conditions: for IC50: Homo sapiens, 24 h. Here is the method: Statistical analyses: Statistical significance was determined with GraphPad Prism 8 software using two-way ANOVA with Dunnett's multiple comparisons test unless indicated otherwise; *P<0.05, **P<0.01, ***P<0.001; ns, not significant.
Data shown in Figures are the means±SE from 4 independent experiments.

Experiment [3] concerns AR-positive breast cancer cell lines. Description: Cell proliferation (BrdU) and viability (alamarBlue) of breast cancer cell lines. The settings on record: BrdU 4 days (enzalutamide 10 μM, EPI-002 35 μM); alamarBlue 2 or 3 days. In kind it is cell-based.
Experimental: Cell Proliferation and Viability Assay: Each breast cancer cell line was plated at 5,000 cells per well in a 96-well plate in culture medium containing 5% or 10% fetal bovine serum. […] For proliferation assay, cells were treated for 4 days and labeled with BrdU for 2 hours. Incorporation of BrdU was measured by enzyme-linked immunosorbent assay (ELISA; Cell Proliferation ELISA, BrdU (colorimetric) from Roche). For cell viability assays, alamarBlue was used for assess cell viability after 2 or 3 days of treatment.
BrdU incorporation was used to assess cell proliferation.
AlamarBlue was used to assess cell viability. Results are presented as mean±SEM (n=3 except n=6 for LNCaP).
A further experiment has as its system C4-2B-MDVR. In words: Colony formation, C4-2B-MDVR. The class given is cell-based, human.
The next experiment concerns LN95-D3 cells. In words: Cell cycle analysis of LN95-D3 cells. In kind it is cell-based. The settings on record: 1.5% charcoal-stripped serum. Here is the method:
Flow cytometry: Fixed cells were probed with anti-BrdU-FITC antibody (BD Biosciences) and stained with 7AAD (Sigma). Data was acquired on a FACSCalibur flow cytometer (BD Biosciences) with CellQUEST Pro and later analyzed using FlowJo V10 software.
After incubating with the compounds, cells were labelled with BrdU for 2 h and then processed for flow cytometry.

The subject of a further experiment is LN95 cells. Description: Senescence-associated β-gal staining of LN95 cells. The settings on record: 1.5% charcoal-stripped serum, 3 days. The class given is cell-based. Here is the method: β-galactosidase staining: Cells grown in chamber slides and treated with compounds were fixed at room temperature with 2% formaldehyde/0.2% glutaraldehyde, and then incubated at 37° C. with fresh β-gal staining solution (Cell Signaling) titrated to pH 6.0. Staining was optimal after incubating the slides overnight for 16-18 hours.
Results shown are representative of 3 independent experiments.

Experiment [4] concerns mCRPC patients with bone metastases. As to conditions: cited from earlier work.
For experiment [5], the system named is reporter constructs regulated by CMV promoter or AP-1 binding sites. Description: Control reporter constructs (CMV promoter, AP-1 binding sites). In kind it is cell-based. From the text: 2010, and Myung et al., J Clin Invest. 2013.
A further experiment has as its system PSA protein. Description: Western blot of PSA protein in LNCaP lysates. The class given is cell-based. As to conditions: ATRA (10 μM), R1881 (1 nM) 24 h.
For a further experiment, the system named is LNCaP95 cells. Description: γH2AX DNA damage in LNCaP95 cells with or without irradiation. The class given is cell-based. The settings on record: ENZ 5 μM, with or without irradiation (4Gy), 48 h. The protocol: Further, cells were labelled for γH2AX and 7AAD and analyzed by flow cytometry (FIG. 12B). The percentage of cells containing above 10 γH2AX foci (mean±SD from three independent experiments) are represented in FIG. 12C.
Flow Cytometry: Cell cycle analysis was conducted by flow cytometry using BrdU-FITC and 7AAD. DNA damage was analyzed using γH2AX antibody (CST) and 7AAD. Cells were analyzed on FACScalibur flow cytometer.
Immunofluorescence staining: γH2AX antibody (Millipore mouse), Alexa488 anti-mouse antibody were used for staining. Cells were analyzed on Axio observer (×20 magnification) equipped with epitome 2.
Statistical analysis: Graphs represent the means±SEM from three independent experiments performed with three technical replicates. Statistical significance was determined using GraphPad Prism software with a one-way ANOVA; *P<0.05, **P<0.01, ***P<0.001, ****P<0.0001.

Turning to `CC(O)(CCl)COc1c(Cl)cc(C(C)(C)c2ccc(OCC(=O)CNS(C)(=O)=O)cc2)cc1Cl` (stereo not drawn) [AA52], in experiment [1], the IC50 was found to be 74 nM.

`CC(C)(c1ccc(OC[C@H](O)CO)cc1)c1cc(Cl)c(OC[C@H](O)CCl)c(Cl)c1` [Compound 1a] came in with an IC50 in [1] of 1410 nM.

In experiment [1], `CC(C)(c1ccc(OCC(=O)CNS(C)(=O)=O)cc1)c1cc(Cl)c(OCCCCl)c(Cl)c1` [AA31, N-(3-(4-(2-(3,5-dichloro-4-(3-chloropropoxy)phenyl)propan-2-yl)phenoxy)-2-oxopropyl)methanesulfonamide] showed an IC50 of 51 nM.

Molecule `CC(C)(c1ccc(OCC(=O)CNS(C)(=O)=O)cc1)c1cc(Cl)c(OCCCl)c(Cl)c1` [AA33] displayed an IC50 in experiment [1] of 38 nM. As to `CC(C)(c1ccc(OC[C@H](O)CO)cc1)c1ccc(OC[C@H](O)CCl)cc1` [EPI-002], the IC50 in [2] turned out to be 7900 ± 1200 nM. The “decrease in IC50 values in the presence of ATRA” value in [2] (PSA (6.1 kb)-luciferase) turned out to be 2 fold. In addition, in experiment [2] (PSA (6.1 kb)-luciferase, R1881 (1 nM)), the “effect of combination with ATRA on inhibiting AR transcriptional activity” value is recorded as “synergistic effect”. For the same molecule, in experiment [3], the “cell proliferation and viability” value is on record as “significantly inhibited”. The “colony formation, combination with Enzalutamide” value with C4-2B-MDVR was “reduced colony formation”. In the experiment on LN95-D3 cells, the “combination with ATRA: G1 arrest and decrease of S phase population” value is reported as “synergistic”. The “percentage of β-gal-positive cells, combination with ATRA” value with LN95 cells was “synergy”.

In experiment [1], `COC[C@@H](O)COc1ccc(C(C)(C)c2cc(Cl)c(OC[C@H](O)CCl)c(Cl)c2)cc1` [Compound 5a] yielded a concentration for half-maximal inhibition (IC50) of 1030 nM. In experiment [1], `CC(C)(c1ccc(OC[C@H](O)Cn2ccnc2)cc1)c1cc(Cl)c(OC[C@H](O)CCl)c(Cl)c1` [Compound 9a] returned an IC50 of 3120 nM.

With `CC(C)(c1ccc(OC[C@H](O)CN)cc1)c1cc(Cl)c(OC[C@H](O)CCl)c(Cl)c1` [Compound 12a, (R)-1-amino-3-(4-(2-(3,5-dichloro-4-((S)-3-chloro-2-hydroxypropoxy)phenyl)propan-2-yl)phenoxy)propan-2-ol], the IC50 in [1] came to 2260 nM. Regarding `[Cl][223Ra][Cl]` [radium 223 dichloride], the “increase overall survival (OS)” value in experiment [4] is “approximately 3 months”. In experiment [1], `CC(C)(c1ccc(OC[C@H](O)CN2CCOCC2)cc1)c1cc(Cl)c(OC[C@H](O)CCl)c(Cl)c1` [Compound 11a] had an IC50 of 1050 nM.

`COCC(=O)COc1ccc(C(C)(C)c2cc(Cl)c(OCC(O)CCl)c(Cl)c2)cc1` (stereo not drawn) [AA56] had an IC50 in [1] of 344 nM. As to `CC1=C(/C=C/C(C)=C/C=C/C(C)=C/C(=O)O)C(C)(C)CCC1` [ATRA, all-trans retinoic acid], the “inhibitory effects on CMV promoter or AP-1 reporter constructs” value in experiment [5] is “No inhibitory effects”. Also, in the experiment on PSA protein, the “androgen-induced expression of PSA protein” value was “decreased”. In addition, in the experiment on LN95-D3 cells, the cell cycle effect entry was “arrested cells in G1 and decreased the S phase population in a dose-dependent manner”. `CC(=O)C(=O)Nc1ccc(C(C)(C)c2cc(Cl)c(OCCCCl)c(Cl)c2)cc1` [AA85]: the IC50 in experiment [1] was 368 nM. For the molecule `CNC(=O)c1ccc(N2C(=S)N(c3ccc(C#N)c(C(F)(F)F)c3)C(=O)C2(C)C)cc1F` [Enzalutamide, enzalutamide], in the experiment on LNCaP95 cells, the “percentage of cells containing above 10 γH2AX foci” value is “no effect”. Besides, the “combination with ATRA: G1 arrest and decrease of S phase population” value with LN95-D3 cells is on record as “not”. With `CCS(=O)(=O)C[C@@H](O)COc1ccc(C(C)(C)c2cc(Cl)c(OC[C@H](O)CCl)c(Cl)c2)cc1` [Compound 14a], in [1], the IC50 came to 950 nM. Take `CC(C)(c1ccc(OC[C@H](O)CNS(C)(=O)=O)cc1)c1cc(Cl)c(OC[C@H](O)CCl)c(Cl)c1` [Compound 13a]: the figures for the IC50 in experiment [1] and in experiment [2] were 1050 nM and 740 ± 1200 nM, respectively. Consider `CC1=C(/C=C/C(C)=C/C=C/C(C)=C\C(=O)O)C(C)(C)CCC1` [Compound 13CisRA], for which the “inhibitory effects on CMV promoter or AP-1 reporter constructs” value in experiment [5] is on record as “No inhibitory effects”.
